Consider one compound from patent publication EP3026118A1, “Enzymatic process for producing 3-butenal and 3-buten-1-ol” (LANXESS Deutschland GmbH, priority 2014, dated 2016).

The experiment deals with T1, Acetaldehyd-Dehydrogenase PS-DmpF (Pseudomonas sp., UniProt Q52060).
T1 construct: made in house; host or cells: E. coli BL21 (DE3), vector pET-21a(+)
T1 sequence (Q52060 1-312): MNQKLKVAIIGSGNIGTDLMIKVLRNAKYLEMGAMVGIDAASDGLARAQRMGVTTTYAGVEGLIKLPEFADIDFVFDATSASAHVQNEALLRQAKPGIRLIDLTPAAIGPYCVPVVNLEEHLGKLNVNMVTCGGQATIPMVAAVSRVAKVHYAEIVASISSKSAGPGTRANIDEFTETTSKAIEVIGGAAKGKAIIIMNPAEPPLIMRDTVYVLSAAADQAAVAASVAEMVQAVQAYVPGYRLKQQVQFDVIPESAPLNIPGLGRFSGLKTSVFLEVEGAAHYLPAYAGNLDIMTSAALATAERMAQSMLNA
The experiment is described as follows: photometric test of inhibition of PS-DmpF by Crotonyl-CoA in mixtures with Butyryl-CoA. The conditions noted are these: Butyryl-CoA and Crotonyl-CoA mixed in different ratios, Figur 4. It is filed as biochemical. An excerpt: Im Rahmen der Photometertests wurde festgestellt, dass die Acetaldehyd-Dehydrogenase DmpF aus Pseudomonas sp. keine Aktivität gegenüber Crotonyl-CoA zeigte. Daher wurde untersucht, ob Crotonyl-CoA kein Substrat für dieses Enzym darstellt oder eine inhibitorische Wirkung auf das Enzym aufweist. Dazu wurden Butyryl-CoA, welches von der Acetaldehyd-Dehydrogenase umgesetzt wird, und Crotonyl-CoA in unterschiedlichen Verhältnissen gemischt und die Aktivität der PS-DmpF gegen diese Substratmischungen untersucht (Figur 4). Die in Figur 4 zusammengefassten Ergebnisse zeigen, dass die Aktivität der PS-DmpF abnahm, je mehr Crotonyl-CoA im Ansatz enthalten ist. Dies bedeutet, dass Crotonyl-CoA inhibierend auf die Acetaldehyd-Dehydrogenase wirkt.

Each structure is given as a SMILES string.

As to `C/C=C/C(=O)SCCNC(=O)CCNC(=O)[C@H](O)C(C)(C)COP(=O)(O)OP(=O)(O)OC[C@H]1O[C@@H](n2cnc3c(N)ncnc32)[C@H](O)[C@@H]1OP(=O)(O)O` [Crotonyl-CoA], the “inhibitorische Wirkung auf das Enzym” value is reported as “inhibierend”.
